Laboratory results from ChEMBL document CHEMBL3124910, “Discovery and structure-activity relationships study of novel thieno[2,3-b]pyridine analogues as hepatitis C virus inhibitors” (Bioorg Med Chem Lett, 2014).

Assays:
Hepatitis C virus [1] = assay: Antiviral activity against HCV genotype 1b infected in human HuH7 cells assessed as inhibition of viral RNA replication after 72 hrs by luciferase reporter gene assay; assay type: functional, organism-based, Hepacivirus hominis; details: Huh-7, 72 h
[2] = Cytotoxicity against human HuH7 cells after 72 hrs by MTT assay; assay type: cell-based, Huh-7
Hepatitis C virus [3] = assay: Antiviral activity against HCV genotype 1b infected in human HuH7 cells assessed as inhibition of viral RNA replication at 20 uM after 72 hrs by luciferase reporter gene assay; assay type: functional, Hepacivirus hominis; details: Huh-7, 72 h
[4] = Cytotoxicity against human LO2 cells after 72 hrs by MTT assay; assay type: cell-based, L02
[5] = Cytotoxicity against human HEK293 cells after 72 hrs by MTT assay; assay type: cell-based
[6] = Selectivity index, ratio of CC50 for human HuH7 cells to EC50 for HCV genotype 1b infected in human HuH7 cells; set-up: species or system Huh-7
[7] = biological target: T1, Inhibitor of nuclear factor kappa-B kinase subunit beta (Homo sapiens) (UniProt O14920); assay: Inhibition of human IKKbeta at 10 uM after 40 mins by scintillation counting analysis in presence of [gamma-33P]ATP
T1 sequence (whole entry): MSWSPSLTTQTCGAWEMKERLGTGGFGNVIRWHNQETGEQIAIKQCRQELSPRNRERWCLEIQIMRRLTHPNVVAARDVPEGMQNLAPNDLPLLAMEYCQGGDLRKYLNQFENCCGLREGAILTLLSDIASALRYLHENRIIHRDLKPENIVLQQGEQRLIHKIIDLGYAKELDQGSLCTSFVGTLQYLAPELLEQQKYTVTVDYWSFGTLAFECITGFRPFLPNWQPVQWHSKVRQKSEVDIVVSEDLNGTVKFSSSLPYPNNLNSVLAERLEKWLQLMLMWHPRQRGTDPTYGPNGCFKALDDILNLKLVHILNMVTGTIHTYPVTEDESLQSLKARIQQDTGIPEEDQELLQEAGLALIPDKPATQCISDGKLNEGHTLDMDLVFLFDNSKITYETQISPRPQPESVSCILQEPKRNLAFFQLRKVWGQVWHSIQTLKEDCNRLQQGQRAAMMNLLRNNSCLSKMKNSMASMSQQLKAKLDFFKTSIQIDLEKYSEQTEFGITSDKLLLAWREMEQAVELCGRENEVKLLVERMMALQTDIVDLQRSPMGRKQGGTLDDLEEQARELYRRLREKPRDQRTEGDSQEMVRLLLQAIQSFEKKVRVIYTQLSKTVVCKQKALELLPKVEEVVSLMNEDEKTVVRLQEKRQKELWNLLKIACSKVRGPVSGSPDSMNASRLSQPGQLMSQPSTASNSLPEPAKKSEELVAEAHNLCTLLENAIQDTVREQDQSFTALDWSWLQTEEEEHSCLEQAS

[8] = biological target: T2, Inhibitor of nuclear factor kappa-B kinase subunit alpha (Homo sapiens) (UniProt O15111); assay: Inhibition of human IKKalpha at 10 uM after 40 mins by scintillation counting analysis in presence of [gamma-33P]ATP
T2 sequence (whole entry): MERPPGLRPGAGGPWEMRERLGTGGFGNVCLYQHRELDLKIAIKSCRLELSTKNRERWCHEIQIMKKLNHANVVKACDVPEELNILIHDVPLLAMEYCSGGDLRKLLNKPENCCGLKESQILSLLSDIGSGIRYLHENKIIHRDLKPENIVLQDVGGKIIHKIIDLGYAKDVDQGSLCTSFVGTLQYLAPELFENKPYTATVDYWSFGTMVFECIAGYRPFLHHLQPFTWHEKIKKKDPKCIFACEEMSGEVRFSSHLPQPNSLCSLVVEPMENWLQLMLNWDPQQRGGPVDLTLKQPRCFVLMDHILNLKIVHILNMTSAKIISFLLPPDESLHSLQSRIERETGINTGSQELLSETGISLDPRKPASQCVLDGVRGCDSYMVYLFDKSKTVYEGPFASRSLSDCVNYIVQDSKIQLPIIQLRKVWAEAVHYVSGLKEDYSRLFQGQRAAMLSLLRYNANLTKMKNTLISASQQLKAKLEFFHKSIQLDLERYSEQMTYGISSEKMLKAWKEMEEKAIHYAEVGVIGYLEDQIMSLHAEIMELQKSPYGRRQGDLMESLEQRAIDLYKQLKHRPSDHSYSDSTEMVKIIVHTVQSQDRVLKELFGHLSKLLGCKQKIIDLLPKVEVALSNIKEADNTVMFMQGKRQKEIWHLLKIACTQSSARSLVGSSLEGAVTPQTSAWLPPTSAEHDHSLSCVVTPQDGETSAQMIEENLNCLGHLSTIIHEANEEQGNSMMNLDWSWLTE

SMILES | EC50 (Hepatitis C virus [1]) | CC50 at 72 h [2] | also measured
Nc1c(C(=O)N2CCNCC2)sc2nc(-c3ccccc3)cc(C(F)(F)F)c12 | 9.6 µM | > 20 µM | 
Nc1c(C(=O)N2CCC(=O)CC2)sc2nc(-c3ccccc3)cc(C(F)(F)F)c12 | > 20 µM | > 20 µM | 
COc1ccc(-c2cc(C(F)(F)F)c3c(N)c(C(=O)N4CCOCC4)sc3n2)cc1 | 10.3 µM | > 20 µM | 
COc1cccc(-c2ccc3c(N)c(C(N)=O)sc3n2)c1 | > 20 µM | < 0.4 µM | 
Nc1c(C(=O)O)sc2nc(-c3ccccc3)cc(C(F)(F)F)c12 | > 20 µM | > 20 µM | 
NC(=O)c1sc2nc(-c3ccccc3)cc(C(F)(F)F)c2c1N | 8.2 µM | > 20 µM | 
COc1cccc(-c2cc(C(F)(F)F)c3c(N)c(C(N)=O)sc3n2)c1 |  | > 20 µM | inhibition at 20 µM (Hepatitis C virus [3]): 45%
Nc1c(C(=O)N2CCOCC2)sc2nc(-c3ccco3)cc(C(F)(F)F)c12 | 9.6 µM | > 20 µM | 
Nc1c(C(=O)N2CCOCC2)sc2nc(-c3ccccc3)cc(C(F)(F)F)c12 | 3.3 µM | > 100 µM | CC50 at 72 h [4]: 94.4 µM; CC50 at 72 h [5]: 85.1 µM; Ratio CC50/EC50 [6]: >30.3
O=C(c1cc2c(C(F)(F)F)cc(-c3ccccc3)nc2s1)N1CCOCC1 | 4.5 µM | > 100 µM | CC50 at 72 h [4]: > 100 µM; CC50 at 72 h [5]: 92.6 µM; Ratio CC50/EC50 [6]: >22.2
COc1ccc(-c2ccc3c(N)c(C(N)=O)sc3n2)cc1 | > 20 µM | < 0.4 µM | 
CCOC(=O)c1sc2nc(-c3ccccc3)cc(C(F)(F)F)c2c1N | 19.3 µM | > 20 µM | 
Nc1c(C(=O)N2CCOCC2)sc2nc(-c3cnccn3)cc(C(F)(F)F)c12 | > 20 µM | > 20 µM | 
Nc1c(C(=O)NCc2cccs2)oc2nc(-c3ccccc3)cc(C(F)(F)F)c12 | 9.8 µM | > 20 µM | 
Nc1c(C(=O)N2CCOCC2)sc2nc(-c3cccs3)cc(C(F)(F)F)c12 | 6.5 µM | > 20 µM | 
Nc1c(C(=O)N2CCOCC2)oc2nc(-c3ccccc3)cc(C(F)(F)F)c12 | 11.2 µM | > 20 µM | 
Nc1c(C(=O)N2CCSCC2)sc2nc(-c3ccccc3)cc(C(F)(F)F)c12 | 7.2 µM | > 20 µM | 
Nc1c(C(=O)N2CCOCC2)sc2nc(-c3ccc(Cl)c(Cl)c3)cc(C(F)(F)F)c12 | > 20 µM | > 20 µM | 
CCOC(=O)c1sc2nc(-c3ccco3)cc(C(F)(F)F)c2c1N | 5.7 µM | > 20 µM | 
CCOC(=O)c1sc2nc(-c3cccs3)cc(C(F)(F)F)c2c1N | 10 µM | > 20 µM | 
Nc1c(C(=O)N2CCOCC2)sc2nc(-c3ccc(F)cc3)cc(C(F)(F)F)c12 | 18.6 µM | > 20 µM | 
Nc1c(C(=O)N2CCOCC2)sc2nc(-c3ccccc3F)cc(C(F)(F)F)c12 | 17.6 µM | > 20 µM | 
Nc1c(C(=O)N2CCOCC2)sc2nc3c(c(C(F)(F)F)c12)CCc1ccccc1-3 | 3.9 µM | > 100 µM | CC50 at 72 h [4]: > 100 µM; CC50 at 72 h [5]: 72.7 µM; Ratio CC50/EC50 [6]: >25.6
Cc1cc(-c2ccccc2)nc2sc(C(=O)N3CCOCC3)c(N)c12 | 5.8 µM | > 20 µM | 

SMILES | EC50 (Hepatitis C virus [1]) | CC50 at 72 h [2] | also measured
CN1CCN(C(=O)c2sc3nc(-c4ccccc4)cc(C(F)(F)F)c3c2N)CC1 | 11.4 µM | > 20 µM | 
Nc1c(C(=O)N2CCc3sccc3C2)sc2nc(-c3ccccc3)cc(C(F)(F)F)c12 | 12.5 µM | > 20 µM | 
COc1ccc(-c2cc(C(F)(F)F)c3c(N)c(C(N)=O)sc3n2)cc1 | 4 µM | 46.4 µM | inhibition [7]: 6%; inhibition [8]: 7%; CC50 at 72 h [4]: 26.2 µM; CC50 at 72 h [5]: 24.7 µM; Ratio CC50/EC50 [6]: 11.6
CN(C)C(=O)c1sc2nc(-c3ccccc3)cc(C(F)(F)F)c2c1N | 8.2 µM | > 20 µM | 
CCOC(=O)c1oc2nc(-c3ccccc3)cc(C(F)(F)F)c2c1N | 6.8 µM | > 20 µM | 
Nc1c(C(=O)NC2CCCC2)sc2nc(-c3ccccc3)cc(C(F)(F)F)c12 | 5.5 µM | > 20 µM | 
Nc1c(C(=O)N2CCCCC2)sc2nc(-c3ccccc3)cc(C(F)(F)F)c12 | 5.9 µM | > 20 µM | 
CCOC(=O)c1oc2nc(-c3cccs3)cc(C(F)(F)F)c2c1N | 18.5 µM | > 20 µM | 
Nc1c(C(=O)NCc2cccs2)sc2nc(-c3ccccc3)cc(C(F)(F)F)c12 | 8.2 µM | > 20 µM | 
CCN(CC)C(=O)c1sc2nc(-c3ccccc3)cc(C(F)(F)F)c2c1N | 3.5 µM | > 100 µM | CC50 at 72 h [4]: > 100 µM; CC50 at 72 h [5]: > 100 µM; Ratio CC50/EC50 [6]: >28.6
Nc1c(C(=O)NCc2ccccc2)sc2nc(-c3ccccc3)cc(C(F)(F)F)c12 | > 20 µM | > 20 µM | 
Nc1c(C(=O)N2CCOCC2)sc2nc(-c3ccccc3)ccc12 | 17.2 µM | > 20 µM | 
Nc1c(C(=O)N2CCOCC2)sc2nc(C3CC3)cc(C(F)(F)F)c12 | 9.7 µM | > 20 µM | 
Nc1c(C(=O)N2CCOCC2)sc2nc(-c3nccs3)cc(C(F)(F)F)c12 | 8.9 µM | > 20 µM | 
COc1cccc(-c2cc(C(F)(F)F)c3c(N)c(C(=O)N4CCOCC4)sc3n2)c1 | 10.8 µM | > 20 µM | 
NC(=O)c1sc2nc(C3CC3)cc(C(F)(F)F)c2c1N | 12.2 µM | > 20 µM | 
COc1ccccc1-c1cc(C(F)(F)F)c2c(N)c(C(N)=O)sc2n1 | 14.3 µM | > 20 µM | 
COc1ccccc1-c1ccc2c(N)c(C(N)=O)sc2n1 | > 20 µM | > 20 µM | 
Nc1c(C(=O)N2CCOCC2)sc2nc(-c3cccc(F)c3)cc(C(F)(F)F)c12 | 6.7 µM | > 20 µM | 
COc1ccccc1-c1cc(C(F)(F)F)c2c(N)c(C(=O)N3CCOCC3)sc2n1 | 8.3 µM | > 20 µM | 
CC(C)(C)OC(=O)N1CCN(C(=O)c2sc3nc(-c4ccccc4)cc(C(F)(F)F)c3c2N)CC1 | > 20 µM | > 20 µM | 
Nc1c(C(=O)N2CCn3c(nnc3C(F)(F)F)C2)sc2nc(-c3ccccc3)cc(C(F)(F)F)c12 | 3.3 µM | 45.2 µM | CC50 at 72 h [4]: 40.7 µM; CC50 at 72 h [5]: 28 µM; Ratio CC50/EC50 [6]: 13.7
CCOC(=O)c1sc2nc(C3CC3)cc(C(F)(F)F)c2c1N | 6.8 µM | > 20 µM | 
